Columns and labels:
COMT [1] = assay: COMT activity (methylation of adrenaline to metanephrine) in rat liver homogenates; format: biochemical; conditions: rat liver homogenate; test compound 3 μM; means±SEM, n=4-8
COMT [2] = assay: COMT activity (methylation of adrenaline to metanephrine) in rat brain homogenates; format: biochemical; conditions: rat brain homogenate; test compound 100 nM; means±SEM, n=4-8
COMT [3] = target: T1, COMT (Homo sapiens, UniProt P21964); assay: COMT activity in intact SK-N-SH cell monolayers; format: cell-based; conditions: SK-N-SH cells; test compound 100 nM; means±SEM, n=4-8
T1 construct: COMT activity was evaluated in cell monolayers by the ability to methylate adrenaline; host or cells: SK-N-SH cells
T1 sequence (P21964 1-271): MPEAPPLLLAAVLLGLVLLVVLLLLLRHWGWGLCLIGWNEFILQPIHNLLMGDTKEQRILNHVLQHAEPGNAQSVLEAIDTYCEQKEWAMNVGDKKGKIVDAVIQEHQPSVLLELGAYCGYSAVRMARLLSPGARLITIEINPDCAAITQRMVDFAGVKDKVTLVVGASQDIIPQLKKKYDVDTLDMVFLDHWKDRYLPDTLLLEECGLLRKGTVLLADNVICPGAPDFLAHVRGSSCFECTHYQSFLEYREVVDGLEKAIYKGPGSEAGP

## O=C(CCN1CCCC1)c1ccc(O)c(O)c1[N+](=O)[O-] [Compound 28, 1-(3,4-Dihydroxy-2-nitro-phenyl)-3-pyrrolidin-1-yl-propan-1-one]
COMT [1]
  COMT activity, Liver (% of control): 2.2 ± 0.2 % of control
COMT [2]
  COMT activity, Brain (% of control): 14 ± 1 % of control
COMT [3]
  COMT activity, SK-N-SH (% of control): 7 ± 0 % of control

## O=C1c2c(cc(O)c(O)c2[N+](=O)[O-])CC1CN1CCOCC1 (stereo not drawn) [Compound 29, 5,6-Dihydroxy-2-morpholin-4-ylmethyl-7-nitro-indan-1-one]
COMT [1]
  COMT activity, Liver (% of control): 0.6 ± 0.0 % of control
COMT [2]
  COMT activity, Brain (% of control): 12 ± 1 % of control
COMT [3]
  COMT activity, SK-N-SH (% of control): 21 ± 1 % of control

## O=C1c2c(cc(O)c(O)c2[N+](=O)[O-])CC1CN1CCCCC1 (stereo not drawn) [Compound 30, 5,6-Dihydroxy-7-nitro-2-piperidin-1-ylmethyl-indan-1-one]
COMT [1]
  COMT activity, Liver (% of control): 1.4 ± 0.1 % of control
COMT [2]
  COMT activity, Brain (% of control): 8 ± 0 % of control
COMT [3]
  COMT activity, SK-N-SH (% of control): 17 ± 1 % of control

## CCN(CC)C(=O)C1CCCN(CCC(=O)c2ccc(O)c(O)c2[N+](=O)[O-])C1 (stereo not drawn) [Compound 31, 1-[3-(3,4-Dihydroxy-2-nitro-phenyl)-3-oxo-propyl]-piperidine-3-carboxylic acid diethylamide]
COMT [1]
  COMT activity, Liver (% of control): 1.7 ± 0.6 % of control
COMT [2]
  COMT activity, Brain (% of control): 8 ± 0 % of control
COMT [3]
  COMT activity, SK-N-SH (% of control): 13 ± 2 % of control

## CC1CCCN(CCC(=O)c2ccc(O)c(O)c2[N+](=O)[O-])C1 (stereo not drawn) [Compound 32, 1-(3,4-Dihydroxy-2-nitro-phenyl)-3-(3-methyl-piperidin-1-yl)-propan-1-one]
COMT [1]
  COMT activity, Liver (% of control): 2.3 ± 0.2 % of control
COMT [2]
  COMT activity, Brain (% of control): 10 ± 0 % of control
COMT [3]
  COMT activity, SK-N-SH (% of control): 11 ± 2 % of control

## CC1CCN(CCC(=O)c2ccc(O)c(O)c2[N+](=O)[O-])CC1 [Compound 33, 1-(3,4-Dihydroxy-2-nitro-phenyl)-3-(4-methyl-piperidin-1-yl)-propan-1-one]
COMT [1]
  COMT activity, Liver (% of control): 2.2 ± 0.3 % of control
COMT [2]
  COMT activity, Brain (% of control): 6 ± 0 % of control
COMT [3]
  COMT activity, SK-N-SH (% of control): 14 ± 0 % of control

## O=C(CCN1CCCC2CCCCC21)c1ccc(O)c(O)c1[N+](=O)[O-] (stereo not drawn) [Compound 34, 1-(3,4-Dihydroxy-2-nitro-phenyl)-3-(octahydro-quinolin-1-yl)-propan-1-one]
COMT [1]
  COMT activity, Liver (% of control): 1.6 ± 0.2 % of control
COMT [2]
  COMT activity, Brain (% of control): 5 ± 0 % of control
COMT [3]
  COMT activity, SK-N-SH (% of control): 11 ± 2 % of control

## CC1CC(C)CN(CCC(=O)c2ccc(O)c(O)c2[N+](=O)[O-])C1 (stereo not drawn) [Compound 35, 1-(3,4-Dihydroxy-2-nitro-phenyl)-3-(3,5-dimethyl-piperidin-1-yl)-propan-1-one]
COMT [1]
  COMT activity, Liver (% of control): 23. ± 0.3 % of control
COMT [2]
  COMT activity, Brain (% of control): 9 ± 0 % of control
COMT [3]
  COMT activity, SK-N-SH (% of control): 13 ± 1 % of control

## O=C(CCN1CCC(Cc2ccccc2)CC1)c1ccc(O)c(O)c1[N+](=O)[O-] [Compound 36, 3-(4-benzyl-piperidin-1-yl)-1-(3,4-Dihydroxy-2-nitro-phenyl)-propan-1-one]
COMT [1]
  COMT activity, Liver (% of control): 2.2 ± 0.4 % of control
COMT [2]
  COMT activity, Brain (% of control): 6 ± 0 % of control
COMT [3]
  COMT activity, SK-N-SH (% of control): 9 ± 2 % of control

## COc1ccc(N2CCN(CCC(=O)c3ccc(O)c(O)c3[N+](=O)[O-])CC2)cc1 [Compound 37, 1-(3,4-Dihydroxy-2-nitro-phenyl)-3-[4-(4-methoxy-phenyl)-piperazin-1-yl]-propan-1-one]
COMT [1]
  COMT activity, Liver (% of control): 1.7 ± 0.3 % of control
COMT [2]
  COMT activity, Brain (% of control): 6 ± 0 % of control
COMT [3]
  COMT activity, SK-N-SH (% of control): 6 ± 2 % of control

From US20020037931A1, “Substituted nitrated catechols, their use in the treatment of some central and peripheral nervous system disorders and pharmaceutical compositions containing them” (priority 2000, published 2002)
